Data from patent publication US20240376099A1, “COMPOUNDS AND COMPOSITIONS AS INHIBITORS OF ENDOSOMAL TOLL-LIKE RECEPTORS” (Novartis AG, priority 2016, published 2024).

What follows are molecules tested against T1, TLR9 (Homo sapiens, UniProt Q9NR96) (assay: huPBMC TLR9 Antagonist IFNα Assay). Conditions: human PBMCs stimulated with ODN2216 0.3 μM, 14-16 hrs; IFNα2b AlphaLISA read-out.
T1 construct: Fresh blood was collected from normal human donors; endogenous in cells; host or cells: human PBMCs from fresh donor blood
T1 sequence (Q9NR96 26-1032): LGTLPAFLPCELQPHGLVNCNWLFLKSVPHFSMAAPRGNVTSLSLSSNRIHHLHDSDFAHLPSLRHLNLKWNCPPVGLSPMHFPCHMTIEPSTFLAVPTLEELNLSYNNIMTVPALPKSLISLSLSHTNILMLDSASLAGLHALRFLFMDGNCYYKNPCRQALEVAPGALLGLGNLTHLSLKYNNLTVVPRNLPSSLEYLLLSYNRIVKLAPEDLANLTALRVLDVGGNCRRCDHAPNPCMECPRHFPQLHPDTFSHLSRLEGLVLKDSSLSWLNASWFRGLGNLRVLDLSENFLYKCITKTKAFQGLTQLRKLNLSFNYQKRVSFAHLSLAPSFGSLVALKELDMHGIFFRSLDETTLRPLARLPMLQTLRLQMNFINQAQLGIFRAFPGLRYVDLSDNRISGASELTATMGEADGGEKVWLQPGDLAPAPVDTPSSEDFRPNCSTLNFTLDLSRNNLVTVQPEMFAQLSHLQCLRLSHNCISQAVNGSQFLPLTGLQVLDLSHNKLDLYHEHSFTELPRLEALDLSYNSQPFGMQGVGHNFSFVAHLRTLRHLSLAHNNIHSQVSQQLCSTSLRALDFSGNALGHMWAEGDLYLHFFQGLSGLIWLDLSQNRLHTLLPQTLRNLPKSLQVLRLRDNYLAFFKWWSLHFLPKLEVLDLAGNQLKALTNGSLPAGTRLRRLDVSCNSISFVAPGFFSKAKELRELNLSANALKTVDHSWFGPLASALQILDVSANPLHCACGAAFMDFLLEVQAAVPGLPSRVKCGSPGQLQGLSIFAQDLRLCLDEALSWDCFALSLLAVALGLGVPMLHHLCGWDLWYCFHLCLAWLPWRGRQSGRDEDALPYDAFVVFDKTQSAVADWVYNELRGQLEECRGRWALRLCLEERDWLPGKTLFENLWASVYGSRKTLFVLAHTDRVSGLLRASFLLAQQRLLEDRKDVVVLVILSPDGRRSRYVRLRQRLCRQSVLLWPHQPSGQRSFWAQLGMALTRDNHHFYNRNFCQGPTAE
Format: cell-based
Method: Compounds were generally serially diluted (1/3) in DMSO and plated on sterile 384 well tissue culture plates and stored until ready for use. Each ten-point dilution was typically plated in triplicate in parallel rows.
Fresh blood was collected from normal human donors underwritten informed consent in heparinized syringes on the morning of the assay. The blood was diluted in RPMI-1640 medium and the white blood cells were separated from red blood cells by centrifugation (800 g 15′ 0 acceleration, 0 brake) on a Ficoll cushion. Peripheral blood mononuclear cells (PBMCs) were separated from platelets by a series of low-speed centrifugations (1000RPM 10′) in PBS+5% HI—FBS and 1 mM EDTA. Purified PBMCs were re-suspended in assay medium (RPMI-1640 w Glutamax (Invitrogen) supplemented with 5% HI—FBS, 10 mM HEPES, 50 uM β-mercaptoethanol, and 100 mG/L penicillin/streptomycin cocktail). Viable PBMCs were counted on a hemacytometer and kept on ice until ready for plating.
A 4× concentration (4 ug/ml or 40 ug/ml for TLR8 or TLR7 assays, respectively) of the TLR7/8 agonist ssRNA40 (IDT) was complexed with 10% DOTAP (Roche) in assay medium for 30 min prior to addition to the PBMC suspension (5 million cells/ml). After addition, the final concentration of ssRNA40 in the TLR7/8 stimulated PBMC suspension was 1 μg/ml for TLR8 assay, and 10 μg/mL for the TLR7 assay. The final DOTAP concentration was 2.5%. Diluted PBMCs (5 million cells/ml) were treated with 4×TLR9 agonist ODN2216 (Invivogen). Final concentration of ODN2216 in TLR9 stimulated PBMC suspension was 0.3 μM.
Agonist stimulated PBMCs were plated on the compound treated 384 well plates at 150,000 cells/well. Un-stimulated PBMCs were plated as controls on each plate. Plating volume was 40 μL per well. DMSO concentration in each well was 0.25%.
A separate plate, without compounds, with titrations of ssRNA40 and ODN2216 was included in every assay to measure agonist response of each donor's PBMC prep. Assay plates were placed in a tissue culture incubator (37° C., 5% CO2) for 14-16 hrs. After this incubation, the plates were centrifuged and stored at −20° C. until they were assayed.
IL-6 TR-FRET Assay for TLR8 activity: • 1) Cisbio Human IL-6 kit, 20,000 tests (62TNFPEC), and GNF High-Base TC 384 well plates (cat #789163G) were used; • 2) the Anti-TIL-6 Cryptate conjugate and the Anti-IL-6 XL665 conjugate were diluted 1:20 in Reconstitution Buffer; • 3) a 1:1 mixture of 3 μl/well Anti-IL-6 Cryptate conjugate and 3 μl/well Anti-IL-6 XL665 conjugate was prepared; • 4) 6 μl/well HTRF dilution mastermix was added to 6 μl of transferred supernatant samples in proxiplates; • 5) The plates were incubated for 3 hrs at rt in the dark; and • 6) the levels of IL-6 production was measured using an Envision plate reader (665 nm (emmission)/590 nm (excitation)) with HTRF settings and ratiometric read-out: (XL665 emission/Eu Cryptate emission)×10,000. IFNα2b AlphaLISA Assay for TLR7 or TLR9 activity After thawing the assay plates, 6 μL of supernatant samples were transferred to a low-volume AlphaPlate 384SW (Perkin-Elmer). The concentration of IFNα in supernatants was measured using the IFNα2b AlphaLISA Assay (Perkin-Elmer: AL297F). 3 μL of IFNα acceptor beads/biotinylated antibody solution was added first, using laboratory automation. After an hour incubation, […] of streptavidin […] bead solution was added. The plates containing this mixture were incubated in the dark for an hour and read on an appropriate plate reader at reading parameters set by the manufacturer. (Envision, EnSpire: Perkin-Elmer).

For `Cc1cc(N2CCc3c(c(C)nn3CC34CCC(N)(CC3)CC4)C2)c2ccncc2n1` [Compound No. 3, 4-((3-methyl-5-(2-methyl-1,7-naphthyridin-4-yl)-4,5,6,7-tetrahydro-1H-pyrazolo[4,3-c]pyridin-1-yl)methyl)bicyclo[2.2.2]octan-1-amine], which IC50 is on record?
The IC50 was 1930 nM.

How did the IC50 turn out when `Cc1cc(N2CCc3c(c(C)nn3CC34CCC(NC5COC5)(CC3)CC4)C2)c2cnn(C)c2n1` [Compound No. 6, N-(4-((5-(1,6-dimethyl-1H-pyrazolo[3,4-b]pyridin-4-yl)-3-methyl-4,5,6,7-tetrahydro-1H-pyrazolo[4,3-c]pyridin-1-yl)methyl)bicyclo[2.2.2]octan-1-yl)oxetan-3-amine] was run?
Its IC50 is 1390 nM.

Which IC50 does the source give for `Cc1cc(N2CCc3c(c(C)nn3CC34CCC(NC(=O)[C@@H]5COCCN5)(CC3)CC4)C2)c2cnn(C)c2n1` [Compound No. 8, (S)—N-(4-((5-(1,6-dimethyl-1H-pyrazolo[3,4-b]pyridin-4-yl)-3-methyl-4,5,6,7-tetrahydro-1H-pyrazolo[4,3-c]pyridin-1-yl)methyl)bicyclo[2.2.2]octan-1-yl)morpholine-3-carboxamide] here?
The IC50 was 4280 nM.

`Cc1cc(N2CCc3c(c(C)nn3CC34CCC(NC(=O)[C@H]5COCCN5)(CC3)CC4)C2)c2cnn(C)c2n1` [Compound No. 9, (R)—N-(4-((5-(1,6-dimethyl-1H-pyrazolo[3,4-b]pyridin-4-yl)-3-methyl-4,5,6,7-tetrahydro-1H-pyrazolo[4,3-c]pyridin-1-yl)methyl)bicyclo[2.2.2]octan-1-yl)morpholine-3-carboxamide] was tested. Which IC50 did it give?
The IC50 was 5100 nM.

Which IC50 does the source give for `Cc1nc(N2CCc3c(c(C)nn3CC34CCC(N5CC6(COC6)C5)(CC3)CC4)C2)c2c(n1)c(C)nn2C` [Compound No. 10, 6-(4-((3-methyl-5-(1,3,5-trimethyl-1H-pyrazolo[4,3-d]pyrimidin-7-yl)-4,5,6,7-tetrahydro-1H-pyrazolo[4,3-c]pyridin-1-yl)methyl)bicyclo[2.2.2]octan-1-yl)-2-oxa-6-azaspiro[3.3]heptane] here?
The IC50 was > 10000 nM.

How did the IC50 turn out when `Cc1nc(N2CCc3c(c(C)nn3CC34CCC(N)(CC3)CC4)C2)c2c(n1)c(C)nn2C` [Compound No. 26, 4-((3-methyl-5-(1,3,5-trimethyl-1H-pyrazolo[4,3-d]pyrimidin-7-yl)-4,5,6,7-tetrahydro-1H-pyrazolo[4,3-c]pyridin-1-yl)methyl)bicyclo[2.2.2]octan-1-amine] was run?
The IC50 was > 1000 nM.

`Cc1cc(N2CCc3c(c(C)nn3CC34CCC(N(C)C)(CC3)CC4)C2)c2cnn(C)c2n1` [Compound No. 43, 4-((5-(1,6-dimethyl-1H-pyrazolo[3,4-b]pyridin-4-yl)-3-methyl-4,5,6,7-tetrahydro-1H-pyrazolo[4,3-c]pyridin-1-yl)methyl)-N,N-dimethylbicyclo[2.2.2]octan-1-amine] was tested. Which IC50 did it give?
The IC50 was 511 nM.

For `Cc1cc(N2CCc3c(c(C)nn3CC34CCC(N5CCN(C)C(=O)C5)(CC3)CC4)C2)c2cnn(C)c2n1` [Compound No. 104, 4-(4-((5-(1,6-dimethyl-1H-pyrazolo[3,4-b]pyridin-4-yl)-3-methyl-4,5,6,7-tetrahydro-1H-pyrazolo[4,3-c]pyridin-1-yl)methyl)bicyclo[2.2.2]octan-1-yl)-1-methylpiperazin-2-one], which IC50 is on record?
The IC50 was > 10000 nM.

With `Cc1cc(N2CCc3c(c(C)nn3CC34CCC(N5CCN(C)CC5=O)(CC3)CC4)C2)c2cnn(C)c2n1` [Compound No. 108, 1-(4-((5-(1,6-dimethyl-1H-pyrazolo[3,4-b]pyridin-4-yl)-3-methyl-4,5,6,7-tetrahydro-1H-pyrazolo[4,3-c]pyridin-1-yl)methyl)bicyclo[2.2.2]octan-1-yl)-4-methylpiperazin-2-one] as the molecule, how does the IC50 read?
The IC50 was 8640 nM.

For `Cc1cc(N2CCc3c(c(C)nn3CC34CCC(n5ccnc5)(CC3)CC4)C2)c2cnn(C)c2n1` [Compound No. 119, 1-((4-(1H-imidazol-1-yl)bicyclo[2.2.2]octan-1-yl)methyl)-5-(1,6-dimethyl-1H-pyrazolo[3,4-b]pyridin-4-yl)-3-methyl-4,5,6,7-tetrahydro-1H-pyrazolo[4,3-c]pyridine], which IC50 is on record?
The IC50 was 608 nM.

`Cc1cc(N2CCc3c(c(C)nn3CC34CCC(NC(=O)CN5CC(F)C5)(CC3)CC4)C2)c2cnn(C)c2n1` [Compound No. 133, N-(4-((5-(1,6-dimethyl-1H-pyrazolo[3,4-b]pyridin-4-yl)-3-methyl-4,5,6,7-tetrahydro-1H-pyrazolo[4,3-c]pyridin-1-yl)methyl)bicyclo[2.2.2]octan-1-yl)-2-(3-fluoroazetidin-1-yl)acetamide] was tested. Which IC50 did it give?
The IC50 was 1140 nM.

How did the IC50 turn out when `Cc1cc(N2CCc3c(c(C)nn3CC34CCC(NC(=O)CO)(CC3)CC4)C2)c2cnn(C)c2n1` [Compound No. 135, N-(4-((5-(1,6-dimethyl-1H-pyrazolo[3,4-b]pyridin-4-yl)-3-methyl-4,5,6,7-tetrahydro-1H-pyrazolo[4,3-c]pyridin-1-yl)methyl)bicyclo[2.2.2]octan-1-yl)-2-hydroxyacetamide] was run?
Its IC50 is > 10000 nM.

Which IC50 does the source give for `Cc1cc(N2CCc3c(c(C)nn3CC34CCC(NC(=O)CN5CC(O)C5)(CC3)CC4)C2)c2cnn(C)c2n1` [Compound No. 136, N-(4-((5-(1,6-dimethyl-1H-pyrazolo[3,4-b]pyridin-4-yl)-3-methyl-4,5,6,7-tetrahydro-1H-pyrazolo[4,3-c]pyridin-1-yl)methyl)bicyclo[2.2.2]octan-1-yl)-2-(3-hydroxyazetidin-1-yl)acetamide] here?
Its IC50 is 1170 nM.

`[2H]C([2H])([2H])n1ncc2c(N3CCc4c(c(C)nn4CC45CCC(N)(CC4)CC5)C3)cc(C)nc21` [Compound No. 140, 4-((3-methyl-5-(6-methyl-1-(methyl-d3)-1H-pyrazolo[3,4-b]pyridin-4-yl)-4,5,6,7-tetrahydro-1H-pyrazolo[4,3-c]pyridin-1-yl)methyl)bicyclo[2.2.2]octan-1-amine] was tested. Which IC50 did it give?
The IC50 was 1800 nM.

For `Cc1cc(N2CCc3c(c(C)nn3CC34CCC(NC(=O)OC(C)(C)C)(CC3)CC4)C2)c2ccncc2n1` [Compound No. 147, tert-butyl (4-((3-methyl-5-(2-methyl-1,7-naphthyridin-4-yl)-4,5,6,7-tetrahydro-1H-pyrazolo[4,3-c]pyridin-1-yl)methyl)bicyclo[2.2.2]octan-1-yl)carbamate], which IC50 is on record?
The IC50 was 6240 nM.
